Assays:
Test in all cases: Large panel kinase profiling
Assay type in all cases: biochemical
Details in all cases: 1 μM test article, 1 mM ATP
GSK3A = target: T1, GSK3A (Homo sapiens, UniProt P49840)
T1 construct: AssayQuant Technologies, Inc. (service provider)
Summary of the method: (§1)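 Single-point profiling at 1 μM test article used 1 mM ATP. Phosphorylation was tracked by sensor fluorescence increase over time at 30° C., with readings each minute at excitation 360 nm and emission 485 nm.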

STK4/MST1 = target: T2, STK4/MST1 (Homo sapiens, UniProt Q13043)
T2 construct: AssayQuant Technologies, Inc. (contract assay)
T2 sequence (Q13043 1-487): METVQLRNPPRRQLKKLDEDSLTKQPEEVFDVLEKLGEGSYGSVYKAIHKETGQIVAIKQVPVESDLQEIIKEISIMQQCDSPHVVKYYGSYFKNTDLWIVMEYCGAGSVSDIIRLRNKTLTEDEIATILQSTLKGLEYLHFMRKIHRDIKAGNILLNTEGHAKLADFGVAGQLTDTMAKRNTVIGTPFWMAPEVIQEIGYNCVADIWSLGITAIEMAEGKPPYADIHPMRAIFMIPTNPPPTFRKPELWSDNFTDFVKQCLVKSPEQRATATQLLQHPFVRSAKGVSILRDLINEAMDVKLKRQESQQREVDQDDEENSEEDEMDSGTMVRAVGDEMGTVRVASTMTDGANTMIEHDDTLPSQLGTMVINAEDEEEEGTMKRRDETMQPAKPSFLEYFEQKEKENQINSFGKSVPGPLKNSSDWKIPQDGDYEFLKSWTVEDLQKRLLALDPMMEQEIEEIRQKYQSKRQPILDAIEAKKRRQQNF
Summary of the method: as §1

FLT3 = target: T3, FLT3 (Homo sapiens, UniProt P36888)
T3 construct: AssayQuant Technologies, Inc. (service provider)
T3 sequence (P36888 27-993): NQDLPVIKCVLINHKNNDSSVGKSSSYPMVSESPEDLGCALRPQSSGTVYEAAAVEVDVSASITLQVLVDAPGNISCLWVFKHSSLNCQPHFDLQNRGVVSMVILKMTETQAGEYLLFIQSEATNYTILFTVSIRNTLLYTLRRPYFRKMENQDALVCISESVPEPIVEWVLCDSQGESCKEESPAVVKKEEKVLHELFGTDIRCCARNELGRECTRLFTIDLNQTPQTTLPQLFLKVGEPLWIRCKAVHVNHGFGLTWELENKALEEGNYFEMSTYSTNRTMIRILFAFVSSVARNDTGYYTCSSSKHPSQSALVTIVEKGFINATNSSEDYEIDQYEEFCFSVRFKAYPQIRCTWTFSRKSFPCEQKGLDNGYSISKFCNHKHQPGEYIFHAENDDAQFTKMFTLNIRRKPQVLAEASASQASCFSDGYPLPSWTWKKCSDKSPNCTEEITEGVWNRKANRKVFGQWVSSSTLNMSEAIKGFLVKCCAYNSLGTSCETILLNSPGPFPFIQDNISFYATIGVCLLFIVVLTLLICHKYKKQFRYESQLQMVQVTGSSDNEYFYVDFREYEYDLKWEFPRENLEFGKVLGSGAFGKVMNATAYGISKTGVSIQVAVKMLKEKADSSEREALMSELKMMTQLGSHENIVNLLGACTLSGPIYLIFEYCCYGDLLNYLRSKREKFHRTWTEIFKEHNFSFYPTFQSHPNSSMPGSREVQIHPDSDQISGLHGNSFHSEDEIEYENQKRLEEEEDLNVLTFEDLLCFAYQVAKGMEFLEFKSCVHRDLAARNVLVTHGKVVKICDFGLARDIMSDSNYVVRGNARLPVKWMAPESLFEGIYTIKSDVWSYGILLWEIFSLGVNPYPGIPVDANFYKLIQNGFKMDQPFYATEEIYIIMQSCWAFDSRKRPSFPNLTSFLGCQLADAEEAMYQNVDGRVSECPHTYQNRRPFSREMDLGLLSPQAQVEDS
Summary of the method: as §1

IRAK4 = target: T4, IRAK4 (Homo sapiens, UniProt Q9NWZ3)
T4 sequence (Q9NWZ3 1-460): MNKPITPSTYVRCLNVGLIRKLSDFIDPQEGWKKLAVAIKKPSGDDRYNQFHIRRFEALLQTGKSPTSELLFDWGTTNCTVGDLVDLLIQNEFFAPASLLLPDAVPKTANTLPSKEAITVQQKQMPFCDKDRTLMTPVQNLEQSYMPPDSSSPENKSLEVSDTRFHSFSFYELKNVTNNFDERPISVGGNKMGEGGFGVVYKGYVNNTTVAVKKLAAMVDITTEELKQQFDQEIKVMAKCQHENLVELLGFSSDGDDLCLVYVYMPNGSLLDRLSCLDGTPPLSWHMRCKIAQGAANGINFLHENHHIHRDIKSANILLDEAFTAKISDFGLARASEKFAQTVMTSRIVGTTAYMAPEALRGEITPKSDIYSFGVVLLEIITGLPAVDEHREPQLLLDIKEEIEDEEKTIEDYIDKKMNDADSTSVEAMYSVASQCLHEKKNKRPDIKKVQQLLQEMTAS
Summary of the method: as §1

MAPK13/P38D = target: T5, MAPK13/P38D (Homo sapiens, UniProt O15264)
T5 construct: AssayQuant Technologies, Inc. (service provider)
T5 sequence (O15264 1-365): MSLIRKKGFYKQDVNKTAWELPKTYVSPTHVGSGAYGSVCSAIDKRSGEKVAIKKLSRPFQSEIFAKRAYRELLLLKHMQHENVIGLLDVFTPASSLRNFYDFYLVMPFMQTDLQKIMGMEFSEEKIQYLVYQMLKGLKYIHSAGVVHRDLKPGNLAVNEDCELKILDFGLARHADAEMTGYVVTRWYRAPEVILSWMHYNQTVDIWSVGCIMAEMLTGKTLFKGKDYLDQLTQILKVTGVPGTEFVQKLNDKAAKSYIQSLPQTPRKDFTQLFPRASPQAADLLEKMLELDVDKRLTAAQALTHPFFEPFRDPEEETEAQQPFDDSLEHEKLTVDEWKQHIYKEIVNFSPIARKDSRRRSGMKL
Summary of the method: as §1

T1 sequence (P49840 whole entry, species assumed): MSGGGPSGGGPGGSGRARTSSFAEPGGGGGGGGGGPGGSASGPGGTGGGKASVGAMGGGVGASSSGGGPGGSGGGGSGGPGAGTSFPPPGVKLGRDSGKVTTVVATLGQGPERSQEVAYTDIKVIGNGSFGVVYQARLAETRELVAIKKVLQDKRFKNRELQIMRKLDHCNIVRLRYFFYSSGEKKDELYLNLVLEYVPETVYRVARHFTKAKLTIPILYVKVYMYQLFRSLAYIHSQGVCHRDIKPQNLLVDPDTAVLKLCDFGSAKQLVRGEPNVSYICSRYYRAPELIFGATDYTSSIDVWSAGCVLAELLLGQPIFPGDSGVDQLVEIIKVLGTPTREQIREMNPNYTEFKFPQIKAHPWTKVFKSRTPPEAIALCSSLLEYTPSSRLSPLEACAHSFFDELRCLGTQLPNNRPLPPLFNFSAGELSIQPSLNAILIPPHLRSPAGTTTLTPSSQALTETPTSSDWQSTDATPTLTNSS

| SMILES | inhibition at 1 µM (GSK3A) [%] | inhibition at 1 µM (STK4/MST1) [%] | inhibition at 1 µM (FLT3) [%] | inhibition at 1 µM (IRAK4) [%] | inhibition at 1 µM (MAPK13/P38D) [%] |
| --- | --- | --- | --- | --- | --- |
| C=CC(=O)N1CCCC(c2c(F)cc(C(N)=O)c3[nH]c4c(c23)CCCCC4)C1 (single isomer, unassigned) [Compound 5-6] | 2.9 | 0.9 | 2.2 | -4.7 | 6.7 |
| C=CC(=O)N1CCC[C@@H](c2c(F)cc(C(N)=O)c3[nH]c4c(c23)CCC4)C1 [Compound 10-2, (S)-8-(1-acryloylpiperidin-3-yl)-7-fluoro-1,2,3,4-tetrahydrocyclo-penta[b]indole-5-carboxamide] | -37.7 | 0.4 | -4.6 | -9.2 | 9 |
| C=CC(=O)N1CCC[C@@H](c2c(F)cc(C(N)=O)c3[nH]c4c(c23)CC2(CC4)CC2)C1 [Compound 6-2, (S)-5-(1-acryloylpiperidin-3-yl)-6-fluoro-1,2,4,9-tetrahydrospiro[carbazole-3,1′-cyclopropane]-8-carboxamide] | -5.1 | -9.5 | -9.4 | 4.1 | 26 |

— US20220009920A1 (GB005, Inc., priority 2020, published 2022)
